Experiments:
Cytochrome P450 2A6 = biological target: T1, Cytochrome P450 2A6 (Homo sapiens, UniProt P11509); details: bti-tn-5b1-4; further: in other assays of this panel Not Active means under 50% inhibition at 10 µM
T1 sequence (P11509 whole entry): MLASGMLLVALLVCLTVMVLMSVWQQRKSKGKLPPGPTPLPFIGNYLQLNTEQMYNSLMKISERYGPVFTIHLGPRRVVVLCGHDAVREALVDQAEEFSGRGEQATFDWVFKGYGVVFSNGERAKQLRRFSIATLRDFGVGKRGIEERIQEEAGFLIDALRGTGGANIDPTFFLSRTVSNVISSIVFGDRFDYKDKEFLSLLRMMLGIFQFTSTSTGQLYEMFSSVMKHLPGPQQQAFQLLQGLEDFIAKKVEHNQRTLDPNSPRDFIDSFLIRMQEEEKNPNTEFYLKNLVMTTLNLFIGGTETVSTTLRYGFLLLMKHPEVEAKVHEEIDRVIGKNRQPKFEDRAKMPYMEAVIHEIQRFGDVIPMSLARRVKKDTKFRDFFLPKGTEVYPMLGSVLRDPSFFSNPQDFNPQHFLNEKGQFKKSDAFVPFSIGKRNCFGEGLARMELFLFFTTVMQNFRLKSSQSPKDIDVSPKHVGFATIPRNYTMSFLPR

Endothelin-1 receptor = biological target: T2, Endothelin-1 receptor (Homo sapiens, UniProt P25101); assay type: cell membranes, Membrane; details: cho-k1; further: in other assays of this panel Not Active means under 50% inhibition at 10 µM
T2 sequence (P25101 whole entry): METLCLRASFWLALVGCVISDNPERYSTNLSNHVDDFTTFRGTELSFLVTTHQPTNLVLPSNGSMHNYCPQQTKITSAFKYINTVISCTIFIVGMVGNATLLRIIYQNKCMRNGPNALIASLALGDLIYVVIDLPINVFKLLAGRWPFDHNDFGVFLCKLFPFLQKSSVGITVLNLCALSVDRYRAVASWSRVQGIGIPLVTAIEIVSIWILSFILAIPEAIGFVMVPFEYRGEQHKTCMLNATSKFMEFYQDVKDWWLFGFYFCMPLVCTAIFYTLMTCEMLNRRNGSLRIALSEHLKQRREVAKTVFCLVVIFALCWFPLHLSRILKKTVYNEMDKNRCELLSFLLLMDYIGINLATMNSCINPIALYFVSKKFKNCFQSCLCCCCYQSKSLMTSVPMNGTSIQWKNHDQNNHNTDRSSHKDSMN

[1] = biological target: Sodium-dependent dopamine transporter (Homo sapiens, UniProt Q01959); experiment: DRUGMATRIX: Dopamine Transporter radioligand binding (ligand: [125I] RTI-55); assay type: cell membranes, CHO-K1, Membrane; details: cho-k1; Not Active = under 50% inhibition at 10 µM
Sequence of Sodium-dependent dopamine transporter (Q01959 whole entry): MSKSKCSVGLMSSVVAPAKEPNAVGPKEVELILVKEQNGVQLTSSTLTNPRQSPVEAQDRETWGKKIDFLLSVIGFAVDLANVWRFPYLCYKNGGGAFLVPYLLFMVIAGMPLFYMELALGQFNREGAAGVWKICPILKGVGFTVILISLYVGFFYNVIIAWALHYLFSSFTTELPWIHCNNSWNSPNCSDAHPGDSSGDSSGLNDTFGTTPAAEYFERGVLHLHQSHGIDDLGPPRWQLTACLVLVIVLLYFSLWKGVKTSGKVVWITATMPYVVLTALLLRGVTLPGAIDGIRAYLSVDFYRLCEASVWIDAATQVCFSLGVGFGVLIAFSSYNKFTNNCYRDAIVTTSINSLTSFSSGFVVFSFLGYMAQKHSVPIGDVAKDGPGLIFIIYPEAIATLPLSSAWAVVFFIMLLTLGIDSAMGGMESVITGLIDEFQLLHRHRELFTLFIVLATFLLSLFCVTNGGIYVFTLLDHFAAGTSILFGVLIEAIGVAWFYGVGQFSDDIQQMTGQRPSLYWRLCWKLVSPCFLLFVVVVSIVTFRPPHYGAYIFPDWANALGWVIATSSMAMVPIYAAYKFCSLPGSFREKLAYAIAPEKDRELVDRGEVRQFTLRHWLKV

[2] = biological target: T3, Amine oxidase [flavin-containing] A (Homo sapiens, UniProt P21397); experiment: DRUGMATRIX: Monoamine Oxidase MAO-A enzyme inhibition (substrate: Kynuramine); design: species or system BTI-TN-5B1-4; details: bti-tn-5b1-4; Not Active = under 50% inhibition at 10 µM
T3 sequence (P21397 whole entry): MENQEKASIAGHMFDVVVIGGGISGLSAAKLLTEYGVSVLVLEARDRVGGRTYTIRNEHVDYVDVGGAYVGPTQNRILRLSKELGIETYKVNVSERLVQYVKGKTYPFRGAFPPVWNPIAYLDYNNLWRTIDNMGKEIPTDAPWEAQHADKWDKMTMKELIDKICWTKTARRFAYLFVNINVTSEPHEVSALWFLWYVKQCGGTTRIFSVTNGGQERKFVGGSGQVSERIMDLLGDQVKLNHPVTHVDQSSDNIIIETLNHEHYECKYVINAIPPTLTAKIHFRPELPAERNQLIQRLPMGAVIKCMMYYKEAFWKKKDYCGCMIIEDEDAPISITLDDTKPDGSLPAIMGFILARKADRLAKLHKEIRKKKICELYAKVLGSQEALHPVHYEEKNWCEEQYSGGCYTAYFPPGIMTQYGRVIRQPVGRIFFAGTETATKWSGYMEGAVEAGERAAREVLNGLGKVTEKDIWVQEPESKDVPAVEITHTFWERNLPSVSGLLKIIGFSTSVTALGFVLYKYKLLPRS

[3] = biological target: Protein phosphatase 3 catalytic subunit alpha (Homo sapiens, UniProt Q08209); design: species or system Escherichia coli;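 further: inhibition of calcineurin (PP2B) enzyme activity, measured with DiFMUP as the substrate; in other assays of this panel Not Active means under 50% inhibition at 10 µM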
Adenosine receptor A3 = biological target: T4, Adenosine receptor A3 (Homo sapiens, UniProt P0DMS8); assay type: cell membranes, CHO-K1, Membrane; details: cho-k1;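 further: radioligand binding assay with AB-MECA serving as the labeled ligand; in other assays of this panel Not Active means under 50% inhibition at 10 µM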
T4 sequence (P0DMS8 whole entry): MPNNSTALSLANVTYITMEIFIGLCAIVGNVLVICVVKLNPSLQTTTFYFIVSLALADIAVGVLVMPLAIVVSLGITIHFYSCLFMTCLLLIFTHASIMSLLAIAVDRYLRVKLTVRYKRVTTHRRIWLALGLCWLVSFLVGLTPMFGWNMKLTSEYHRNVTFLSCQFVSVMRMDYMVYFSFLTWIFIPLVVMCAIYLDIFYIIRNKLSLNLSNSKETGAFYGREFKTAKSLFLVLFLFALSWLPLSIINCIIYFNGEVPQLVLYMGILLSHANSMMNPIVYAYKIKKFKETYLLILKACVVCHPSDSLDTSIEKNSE

[4] = biological target: Protein kinase C alpha type (Homo sapiens, UniProt P17252); assay type: cell-based; details: sf9
[5] = DRUGMATRIX: Nicotinic Acetylcholine radioligand binding (ligand: [125I] Epibatidine); assay type: cell membranes, Membrane; details: imr-32; Not Active = under 50% inhibition at 10 µM
[6] = DRUGMATRIX: Imidazoline I2, Central radioligand binding (ligand: [3H] Idazoxan); assay type: cell membranes, Rattus norvegicus, Wistar, Cerebral cortex, Membrane; details: Not Active = under 50% inhibition at 10 µM

Clc1ccc2c(c1)C(N1CCNCC1)=Nc1ccccc1O2 [AMOXAPINE]
Not Active: IC50 (Cytochrome P450 2A6) | Ki (Cytochrome P450 2A6) | IC50 (Endothelin-1 receptor) | IC50 [1] | IC50 [2] | IC50 [3] | IC50 (Adenosine receptor A3) | IC50 [4]

COc1cc2c(c(OC)c1OC)-c1ccc(OC)c(=O)cc1[C@@H](NC(C)=O)CC2 [COLCHICINE]
Not Active: IC50 (Cytochrome P450 2A6) | Ki (Cytochrome P450 2A6) | IC50 (Endothelin-1 receptor) | IC50 [1] | IC50 [2] | IC50 [3] | IC50 (Adenosine receptor A3) | IC50 [4]

CC/C(=C(/CC)c1ccc(O)cc1)c1ccc(O)cc1 [DIETHYLSTILBESTROL]
Not Active: IC50 (Cytochrome P450 2A6) | Ki (Cytochrome P450 2A6) | IC50 (Endothelin-1 receptor) | IC50 [2] | IC50 [3] | IC50 [4]

C=CCN1CC[C@]23c4c5ccc(O)c4O[C@H]2C(=O)CC[C@@]3(O)[C@H]1C5 [NALOXONE]
Not Active: IC50 (Endothelin-1 receptor) | IC50 [1] | IC50 [2] | IC50 [3] | IC50 (Adenosine receptor A3) | IC50 [4]

COCCOC(=O)C1=C(C)NC(C)=C(C(=O)OC(C)C)C1c1cccc([N+](=O)[O-])c1 (configuration not stated) [NIMODIPINE]
Not Active: IC50 (Endothelin-1 receptor) | IC50 [1] | IC50 [5] | Ki [5] | IC50 [2] | IC50 [6] | Ki [6] | IC50 [3] | IC50 (Adenosine receptor A3) | IC50 [4]

CC(C)NCC(O)COc1cccc2ccccc12 (configuration not stated) [PROPRANOLOL]
Not Active: IC50 (Cytochrome P450 2A6) | Ki (Cytochrome P450 2A6) | IC50 (Endothelin-1 receptor) | IC50 [2] | IC50 [3] | IC50 (Adenosine receptor A3) | IC50 [4]

O=C(c1ccc(OCCN2CCCCC2)cc1)c1c(-c2ccc(O)cc2)sc2cc(O)ccc12 [RALOXIFENE]
Not Active: IC50 (Cytochrome P450 2A6) | Ki (Cytochrome P450 2A6) | IC50 (Endothelin-1 receptor) | IC50 [5] | Ki [5] | IC50 [2] | IC50 [6] | Ki [6] | IC50 [3] | IC50 (Adenosine receptor A3) | IC50 [4]

CC(C)c1nc(CN(C)C(=O)N[C@H](C(=O)N[C@@H](Cc2ccccc2)C[C@H](O)[C@H](Cc2ccccc2)NC(=O)OCc2cncs2)C(C)C)cs1 [RITONAVIR]
Not Active: IC50 (Endothelin-1 receptor) | IC50 [1] | IC50 [5] | Ki [5] | IC50 [2] | IC50 [6] | Ki [6] | IC50 [3] | IC50 (Adenosine receptor A3) | IC50 [4]

CC(C)(C)c1ccc(C(O)CCCN2CCC(C(O)(c3ccccc3)c3ccccc3)CC2)cc1 (configuration not stated) [TERFENADINE]
Not Active: IC50 (Cytochrome P450 2A6) | Ki (Cytochrome P450 2A6) | IC50 (Endothelin-1 receptor) | IC50 [5] | Ki [5] | IC50 [2] | IC50 [6] | Ki [6] | IC50 [3] | IC50 (Adenosine receptor A3) | IC50 [4]

Source: ChEMBL document CHEMBL1909046, “DrugMatrix in vitro pharmacology data”
